Results reported in US8017727B2, “Conjugates of membrane translocating agents and pharmaceutically active agents” (Merrion Research III Limited, priority 1999, dated 2011).

What was measured:
Caco-2 cell monolayers = experiment: Permeability of tritiated kappa peptide conjugates through differentiated Caco-2 cell monolayers; format: in vitro ADME, human; settings: n=5
Protocol: Highest transport values were obtained in the first 30 min followed by a 2-4 fold decrease at 60 min. The significance of these findings is unclear. The data may be indicative of dual binding/uptake events occurring through i) a kappa receptor specific mechanism and ii) direct membrane interaction through lipid interaction of the membrane permeable peptide.

[1] = Systemic 3H bioavailability of kappa peptide conjugates, conscious rat model (plasma); format: in vivo, Wistar rats; settings: intraduodenal (ID), 100 μCi
Protocol: The possible enhancing effects of ELAN094 and ELAN207 MTLPs (SEQ ID NOs 2 and 60) on intestinal absorption of the kappa peptide were examined in a conscious rat model.
The study was non-randomised, parallel group design. Wistar rats within the 250-350 g weight range were used. All animals were fasted for a period of 16 h prior to study initiation. Water was available at all times.
Intravenous injection of 10 μCi of ^3H-kappa peptide-Kaffiralin-1 (plain kappa peptide) (tail vein injection).
Intraduodenal instillation of 100 μCi of ^3H-kappa peptide-Elan094 (Analysed). The Elan094 ligand contains a membrane translocating sequence.
Intraduodenal instillation of 100 μCi of ^3H-kappa peptide-Elan207 (Analysed). The Elan207 ligand contains a membrane translocating sequence.
Intraduodenal instillation of 100 μCi of ^3H-kappa peptide-Kaffiralin-1.
The plasma (100-250 μl) was made up to 1 ml with BTS-450 (an organic tissue solubiliser) and incubated for 1 hour. Ten ml of Scintillation fluid was added and the radioactivity was measured.
The study was a non-randomised, parallel group biostudy designed to evaluate the systemic bioavailability of tritium labelled kappa peptide conjugates after intra-duodenal instillation in the conscious rat model. Each rat only received one treatment and the plasma samples were analysed for tritium content. The calculation of AUClast, Amax, tmax, Volume of Distribution (V d) and Clearance was based on base line corrected data. The absolute bioavailability was calculated using potency corrected data.

[2] = 3H tissue distribution of kappa peptide conjugates, conscious rat model; format: in vivo, Wistar rats; settings: ID, 100 μCi, potency corrected
Protocol: The tissue was weighed and a representative sample, (ca 0.1 g), was removed to a scintillation vial. The tissue was solubilzed with 1 ml of BTS-450 (an organic tissue solubliser). Ten ml of scintillation fluid was added and the radioactivity was measured. The radioactivity was expressed as dpm/initial weight of tissue.

[3] = Opioid peptide stability in SIF (pancreatin, pH 7.5, HPLC/LCMS); format: in vitro ADME
Protocol: Pancreatin (Fisher Scientific) was dissolved at 1 mg/ml in 1× phosphate buffer solution. The pH of the solution was adjusted to 7.5 with 0.01 M NaOH and it was heated in a waterbath to 37° C. Two dry peptide samples were weighed out. One sample was dissolved in phosphate buffer solution at 1.0 mg/ml as a control. The second sample was dissolved in SIF at 1.0 mg/ml for stability analysis. HPLC Analysis Conditions RP-HPLC analysis with C-18 short column (Betasil column, 5 μm (50×3 mm) PN: 055-701-3) with the following gradient: […]
Diode array detector on the system, 214 nm used for analysis
Solution in SIF injected at 0, 1, 3, and 24 hours
Analyzed control and 24 hour sample by LCMS.

kappa receptor = target: T1, kappa receptor (Rattus norvegicus, UniProt P34975); experiment: Competition for binding of a radiolabelled kappa peptide to rat brain homogenates; settings: IC50, Day 82, first of triplicates
T1 construct: from tissue; host or cells: rat brain homogenate
Protocol: The integrity of the opioid peptide was evaluated post conjugation to assess suitability for inclusion in further studies. Opioid activity was assessed in vitro using a competition assay (competition for binding of a radiolabelled kappa peptide to rat brain homogenates).

[4] = Stability of MTLPs in simulated intestinal fluid pH 6.8 with pancreatin (HPLC recovery)
Protocol: MTLPs ZElan094 and ZElan207 (SEQ. ID NO: 2 and 60) were dissolved in water and mixed with simulated intestinal fluid pH 6.8 containing porcine derived pancreatin (SIF+Pancreatin) at 37° C. The mixtures were incubated for up to 60 minutes at 37° C., with aliquots taken at designated time points. The reaction was quenched with quenching solution after the relevant time points in order to halt the reaction between the SIF and ligand.
Approximately 1 mg of ligand was dissolved in 1 ml of water. This standard stock solution of ligand was used to prepare the solutions containing Ligand+SIF+Pancreatin. 50 μL of ligand solution was mixed with volumes of SIF+Pancreatin in separate eppendorfs, as follows:
At the appropriate time point the reaction between the ligand and SIF was stopped by pipetting 100 μL of the mixture into 500 μL of quenching solution (Acetonitrile:Water 30:70). 20 μL of the mixture was injected onto the HPLC system.
Control samples of ligand in water and in quenching solution were prepared to check for recovery of ligand in the absence of SIF+Pancreatin.

Caco-2 monolayers = experiment: Transport of dipeptide 14C-gly-sar across Caco-2 monolayers; format: cell-based, human; parameters: key to % inhibition 14C-gly-sar transport: NS: no significant difference between experimental (+MTLP) and control cells (−MTLP) in the transport of radiolabeled drug; settings: flux measured over 2 h
Protocol: The effect of the MTLPs ZElan094, ZElan178 and ZElan187 (SEQ ID NOS: 2, 7 and 16) and of the targeting peptide ZElan022 (U.S. patent application Ser. Nos. 09/079,819, 09/079,723 AND 09/079,678, AND PCT APPLICATION PCT/US98/10088, PUBLISHED AS WO 98/51325) on the transport of the dipeptide ^14C-gly-sar and of the reporter molecule ^3H-fMLP across Caco-2 monolayers was determined. The Caco-2 monolayers were grown on Transwell-Snapwells. Cell viability was determined by measuring TEER of the Caco-2 monolayers during each experiment. No significant drop in TEER was measured. Cell permeability was determined by measuring mannitol flux across the Caco-2 monolayers during each experiment. No increase in mannitol flux was measured in the presence of the MTLP ZElan094.
The flux of the dipeptide ^14C-gly-sar and of the reporter molecule ^3H-fMLP across the Caco-2 monolayers in the absence and in the presence of the MTLPs ZElan094, ZElan178 and ZElan187 (SEQ ID NOS: 2, 7 and 16) and of the targeting peptide ZElan022 (U.S. patent application Ser. Nos. 09/079,819, 09/079,723 AND 09/079,678), AND PCT APPLICATION PCT/US98/10088, PUBLISHED AS WO 98/51325 was measured over 2 h, and reduction in the permeability coefficient was determined in the presence of cold substrates.

CC[C@@H](C)[C@@H](NC(=O)[C@@H](Cc1ccccc1)NC(=O)[C@@H](Cc1ccccc1)NC(=O)[C@H](CCCCN)NC(=O)[C@@H]1CCCN1C(=O)[C@H](C)NC(=O)[C@H](C)NC(=O)[C@H](CC(C)C)NC(=O)[C@H](CC(C)C)NC(=O)[C@@H](NC(=O)[C@@H]1CCCN1C(=O)[C@H](CC(C)C)NC(=O)[C@H](CC(C)C)NC(=O)[C@@H](NC(=O)[C@H](C)NC(=O)[C@H](C)NC(=O)[C@H](C)NC(=O)[C@H](CCCCN)NC(=O)[C@@H](N)CCCCN)C(C)C)C(C)C)C(=O)N[C@H](CCCNC(=N)N)C(N)=O [3H-Kappa peptide-Elan094]
permeability compared to the kappa peptide control (Caco-2 cell monolayers): No significant increase | fold increase in absolute 3H bioavailability versus kappa peptide without ligand [1]: ~6 fold | 3H AUClast ([1]; Elan207 = original group): 260642.53±35010.58 dpm/ml·h | 3H Amax (maximum radioactivity) ([1]; Elan207 = original group): 158512.67±18907.79 dpm/ml | fold increase in absolute 3H bioavailability versus kappa peptide without ligand ([1]; listed as Elan094 MTLP): approximately 5.8 fold | bioavailability ([1]; rat, plasma, potency corrected, Elan207 = original group, read-out: Absolute 3H bioavailability): 46.5 ± 6.24% | Catheter, % of administered dose [2]: 0.20 ± 0.10% | GI Tissue, % of administered dose [2]: 11.61 ± 11.27% | GI Washing, % of administered dose [2]: 9.70 ± 5.24% | GI contents, % of administered dose [2]: 23.57 ± 21.57% | Liver, % of administered dose [2]: 0.37 ± 0.06% | Total GI (% recovery from GI tissue, GI contents & GI wash) [2]: 44.89 ± 19.94% | Kidney, % of administered dose ([2]; t=6 h): 0.12 ± 0.07% | Plasma, % of administered dose ([2]; t=6 h): 0.42±0.08% | Total Recovery, % of administered dose ([2]; t=6 h): 46.00 ± 19.91%

CC[C@@H](C)[C@@H](NC(=O)[C@@H](Cc1ccccc1)NC(=O)[C@H](N)Cc1ccccc1)C(=O)N[C@H](CCCNC(=N)N)C(N)=O [H-ffir-NH2]
stability in SIF ([3]; over the 24 hour period): very stable | remaining at 1 h, 1 mg/ml ([3]; simulated intestinal fluid (SIF) with pancreatin, pH 7.5, SIF, 37° C., 1 hr, read-out: % Compound): 105% | remaining at 24 h, 1 mg/ml ([3]; simulated intestinal fluid (SIF) with pancreatin, pH 7.5, SIF, 37° C., 24 hr, read-out: % Compound): 101% | IC50 (kappa receptor): 4 nM

CC(C)C[C@@H](NC(=O)[C@@H](CC(C)C)NC(=O)[C@H](NC(=O)[C@H]1CCCN1C(=O)[C@@H](CC(C)C)NC(=O)[C@@H](CC(C)C)NC(=O)[C@H](NC(=O)[C@@H](C)NC(=O)[C@@H](C)NC(=O)[C@@H](C)NC(=O)[C@@H](CCCCN)NC(=O)[C@@H](CCCCN)NC(=O)[C@H](N)CCCCNS(=O)(=O)c1cccc2c(N(C)C)cccc12)C(C)C)C(C)C)C(=O)N[C@H](C)C(=O)N[C@H](C)C(=O)N1CCC[C@@H]1C(N)=O [ZElan207]
recovery ([4]; % Recovery, control without SIF: Pep + H2O (100 ul) + H2O, 60 min): 101% | recovery ([4]; % Recovery, control without SIF: Pep + H2O (100 ul) + quenching solution, 60 min): 101% | recovery ([4]; pH 6.8, % Recovery, Peptide + 100 uL SIF pH 6.8, 37 C, 5 min): 96.6% | recovery ([4]; pH 6.8, % Recovery, Peptide + 100 uL SIF pH 6.8, 37 C, 10 min): 97.4% | recovery ([4]; pH 6.8, % Recovery, Peptide + 100 uL SIF pH 6.8, 37 C, 30 min): 87.8% | recovery ([4]; pH 6.8, % Recovery, Peptide + 100 uL SIF pH 6.8, 37 C, 60 min): 97.7% | recovery ([4]; pH 6.8, % Recovery, Peptide + 200 uL SIF pH 6.8, 37 C, 5 min): 99% | recovery ([4]; pH 6.8, % Recovery, Peptide + 200 uL SIF pH 6.8, 37 C, 10 min): 96.3% | recovery ([4]; pH 6.8, % Recovery, Peptide + 200 uL SIF pH 6.8, 37 C, 30 min): 92.8% | recovery ([4]; pH 6.8, % Recovery, Peptide + 200 uL SIF pH 6.8, 37 C, 60 min): 96.5%

H-K(ε-dansyl)KKAAVLLPVLLA-NH2 ({K(ε-dansyl)}-KKAAVLLPVLLA-NH2) [ZElan187]
% inhibition 14C-gly-sar transport (Caco-2 monolayers): NS | inhibition of 14C-gly-sar transport (Caco-2 monolayers): did not inhibit transport

H-K(ε-dansyl)KKCAAVLLPVLLAC-NH2 ({K(ε-dansyl)}-KKCAAVLLPVLLAC-NH2; not fully specified; printed as H-K(ε-dansyl)KKCAAVLLPVLLAC-NH2; also: cyclic internal, bridge kind and places not given here) [ZElan178]
% inhibition 14C-gly-sar transport (Caco-2 monolayers): NS | inhibition of 14C-gly-sar transport (Caco-2 monolayers): did not inhibit transport
